Assay results reported in patent US7265097B2, “Methods of drug delivery using sulphated chitinous polymers” (Chitogenics, Inc., priority 2002, dated 2007).

What was measured:
[1] = parameters: species or system rats; conditions: rat, in vivo
Method: The effect of S-NOCCs (N-sulphated N,O-carboxymethyl chitosans) as primary carriers in vivo was tested using rats. Male Wistar rats (SPF status, approximately 250 g) were obtained from Charles River (NL). The animals were fasted for 16 hours before administration with free access to water. The animals were anesthetized with Hypnorm (fentanyl citrate) and Dormicum (midazolam). The body temperature of the rats was kept at 36-37° C. and was monitored throughout the experiment.
Reviparin LMWH (Reviparin, Knoll, 108 Anti-XaU/mg) solution was prepared in physiological saline at 625 anti Xa U/ml.
S-NOCC was tested at two viscosities 40 and 60 cps (S-NOCC40 and S-NOCC60), representing a lower and higher molecular weight chitinous polymer respectively. The S-NOCCs were dissolved at 3% (w/v) in the reviparin solution to form a viscous gel.
In order to administer the LMWH formulations, a thin Teflon tube (˜1 mm i.d.) was used for the control (no polymer). In order to administer the S-NOCC formulations, a polypropylene tube with i.d. ˜3 mm was used to facilitate the viscous gels for their administration. Both tubes were connected to a syringe.
The abdomen of the animals was opened by an incision and the stomach was moved towards the incision point. A small incision at the stomach was made to allow each tube to be guided via the pylorus to the beginning of the duodenum (first 2-3 cm.). Formulation were administered slowly over 5 min and at +/− 2 ml normalized for the body weight of each animal to assure administration of 5000 Anti-Xa U/kg.
Blood samples, ˜225 μl, were collected from the tail vein capillaries (after incision) in Eppendorf vials containing 25 μl sodium citrate 3.8%. The samples were centrifuged at 13000 rpm for 20 min.
Analysis of samples was performed using the Chromostrate heparin Anti-Xa assay (Organon Teknika, NL). […] The release of pNA was measured by an end-point method at 405 nm in an EL808 ultra microplate reader (Biotek Instruments Inc.). […]

Caco-2 cells = test: TEER of Caco-2 cells treated with sulphated chitinous polymers; format: cell-based
Method: The Caco-2 intestinal epithelial cells used in this example form apically tight junctions that seal the paracellular pathways. Disruption of the tight junctions' barrier leads to increased paracellular permeability of hydrophilic drugs that are poorly absorbed across the intestine. The integrity of the tight junctions can be determined by measuring decreases in the transepithelial electrical resistance (TEER) when the tight junctions are opened.
Caco-2 cell cultures were seeded initially from cryovials (stored in liquid nitrogen) to flasks and treated with trypsin. After trypsin treatment, cells were seeded on the Costar Transwell filters (24-well plates, Costar Europe, Badhoevedorp, The Netherlands) at a seeding density of 10^4 cells/cm^2. Dulbecco's Modified Eagle's Medium (DMEM, Sigma, Bornem; Belgium; pH=7.4), supplemented with 1% nonessential amino acids, 10%, fetal calf serum (Hyclone, Greiner, The Netherlands), benzyl-penicillin G (160 U/ml) and streptomycin sulfate (100 μg/ml) (Sigma) was used as culture medium, and was added to both the donor and the acceptor compartment. […]
S-OCC(N-sulphated O-carboxymethyl chitosan), S-NOCC(N-sulphated N,O-carboxymethyl chitosan), and S-SAN (N-sulphated chitosan) were applied on the Caco-2 cell cultures and TEER was measured for 4 hours. […] The TEER was also recorded at 24 hrs after application to investigate the viability of the monolayers.

## N-sulphated N,O-carboxymethyl chitosan [S-NOCC40]
[1]
  absorption of the LMWH (plasma anti-Xa level, relative to antithrombotic level): ≥ 0.2 Anti-Xa U/ml
  time over which absorption of LMWH was sustained: 6 h

## Reviparin [reference compound]
[1]
  intestinal absorption of LMWH: limited

## Sulphated Chitosan [S-SAN]
Caco-2 cells
  disruption of the tight junctions between Caco-2 epithelial cells: able to effectively disrupt the tight junctions
